{"source": "ChEMBL document CHEMBL1144356", "about": "(J Med Chem, 2005)", "key": {"Canis familiaris [1]": {"system": "Canis familiaris", "experiment": "Effect on cholesterol lowering in male Beagle dog at an oral dose of 0.03 mkd for 7 days"}, "Canis familiaris [2]": {"system": "Canis familiaris", "experiment": "Effect on cholesterol lowering in male Beagle dog at an oral dose of 0.01 mkd for 3 days"}, "Canis familiaris [3]": {"system": "Canis familiaris", "experiment": "Effect on cholesterol lowering in male Beagle dog at an oral dose of 0.03 mkd for 10 days"}, "Cricetinae gen. sp.": {"system": "Cricetinae gen. sp.", "experiment": "Effect at an oral dose of 1 mg/kg/day for 14 days on serum cholesterol level of hamster", "assay_type": "functional, Cricetulus griseus"}, "Canis familiaris [4]": {"system": "Canis familiaris", "experiment": "Effect on cholesterol lowering in male Beagle dog at an oral dose of 0.3 mkd for 7 days with 4 mkd simavastatin"}, "[5]": {"molecular_target": "T1, Peroxisome proliferator-activated receptor delta (Homo sapiens, UniProt Q03181)", "T1 sequence (Q03181 whole entry)": "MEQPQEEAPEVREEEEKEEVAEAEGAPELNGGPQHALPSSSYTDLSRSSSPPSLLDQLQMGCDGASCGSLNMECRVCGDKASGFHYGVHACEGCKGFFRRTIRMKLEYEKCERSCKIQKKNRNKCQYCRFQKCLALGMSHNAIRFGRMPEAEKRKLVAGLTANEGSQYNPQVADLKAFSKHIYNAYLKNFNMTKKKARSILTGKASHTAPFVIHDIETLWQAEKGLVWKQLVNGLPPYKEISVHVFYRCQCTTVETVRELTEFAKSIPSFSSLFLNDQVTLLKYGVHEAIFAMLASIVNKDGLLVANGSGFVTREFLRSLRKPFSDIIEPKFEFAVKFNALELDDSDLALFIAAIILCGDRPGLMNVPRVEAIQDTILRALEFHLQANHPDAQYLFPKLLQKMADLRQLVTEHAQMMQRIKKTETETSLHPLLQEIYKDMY", "experiment": "In vitro binding affinity for PPAR-delta"}}, "note": "pIC50: −log10 of the molar value."}
{"smiles": "CC[C@@]1(C(=O)O)Cc2cc(OCCCOc3ccc(OC(F)(F)F)cc3Cl)ccc2O1", "values": [{"measurement": "TC", "setting": "Canis familiaris [1]", "result": -11.2, "unit": "%"}, {"measurement": "TC", "setting": "Canis familiaris [2]", "result": -6.7, "unit": "%"}, {"measurement": "TC", "setting": "Canis familiaris [3]", "result": -17.9, "unit": "%"}, {"measurement": "TC", "setting": "Cricetinae gen. sp.", "result": -42, "unit": "%"}, {"measurement": "TC", "setting": "Canis familiaris [4]", "result": -27.8, "unit": "%"}, {"measurement": "pIC50", "setting": "[5]", "result": "< 4.82"}]}
